Data from patent US20120189673A1, “POLYPEPTIDES AND USES THEREOF” (priority 2009, published 2012).

Experiments:
[1] = molecular target: C3a (complement anaphylatoxin C3a peptides in chronic wound fibrin slough) (human) (UniProt P01024); assay: double immunogold electron microscopy (C3a 10 nm, C-termini of TFPI 20 nm), evaluation of 50 bacterial profiles in wound fibrin slough
RAW 264.7 macrophages = assay: NO production in RAW 264.7 macrophages stimulated with LPS or other microbial products (Griess reaction); type: cell-based, mouse; conditions: LPS from E. coli or P. aeruginosa; peptide at indicated concentrations (FIG. 41C)
Description: Effects of various microbial products on macrophages in vitro and anti-inflammatory effects by various peptides of HCII and TFPI. 3.5×10^5 cells were seeded in 96-well tissue culture plates (Nunc, 167008) in phenol red-free DMEM (Gibco) supplemented with 10% FBS and antibiotics. Following 6 hours of incubation to permit adherence, cells were stimulated with 10 ng/mL E. coli (0111:B4) LPS (Sigma), lipoteichoic acid, peptioglycan, or zymosan, with and without peptides at the indicated doses (se figure legends and figures). The levels of NO in culture supernatants were determined after 24 hours from stimulation using the Griess reaction. Briefly, nitrite, a stable product of NO degradation, was measured by mixing 50 μl of culture supernatants with the same volume of Griess reagent (Sigma, G4410) and reading absorbance at 550 nm after 15 min. Phenol-red free DMEM with FBS and antibiotics were used as a blank. A standard curve was prepared using 0-80 μM sodium nitrite solutions in ddH20.
LPS effects on macrophages in vitro—[…] cells were seeded in 96-well tissue culture plates (Nunc, 167008) in phenol red-free DMEM (Gibco) supplemented with 10% FBS containing 1% Anti-Anti (Invitrogen). Following 20 hours of incubation to permit adherence, cells were washed and stimulated with 10 ng/ml E. coli (0111:B4) or P. aeruginosa LPS (Sigma), with and without the peptides GGL27, GGL27(S), and DSE25 of various doses. The levels of NO in culture supernatants were determined after 24 hours from stimulation using the Griess reaction (27). Briefly, nitrite, a stable product of NO degradation, was measured by mixing 50 μl of culture supernatants with the same volume of Griess reagent (Sigma, G4410) and reading absorbance at 550 nm after 15 min. Phenol-red free DMEM with FBS and antibiotics were used as a blank. A standard curve was prepared using 0-80 μM sodium nitrite solutions in ddH20.

[2] = system: Escherichia coli, Pseudomonas aeruginosa, Bacillus subtilis, Staphylococcus aureus, Candida albicans, Candida parapsilosis; assay: Radial diffusion assay (RDA); type: cell-based; conditions: peptide at 100 μM, 6 μl per well; 18-24 h at 37° C.
Description: Radial diffusion assay. Essentially as described earlier, bacteria were grown to mid-logarithmic phase in 10 ml of full-strength (3% w/v) trypticase soy broth (TSB) (Becton-Dickinson). The microorganisms were then washed once with 10 mM Tris, pH 7.4. Subsequently, 4×10^6 cfu were added to 15 ml of the underlay agarose gel, consisting of 0.03% (w/v) TSB, 1% (w/v) low electroendosmosis type (EEO) agarose (Sigma-Aldrich) and 0.02% (v/v) Tween 20 (Sigma-Aldrich). The underlay was poured into a Ø 144 mm petri dish. After agarose solidification, 4 mm-diameter wells were punched and 6 μl peptide solution of required concentration added to each well. Plates were incubated at 37° C. for 3 h to allow peptide diffusion. The underlay gel was then covered with 15 ml of molten overlay (6% TSB and 1% Low-EEO agarose in distilled H2O). Antimicrobial activity of a peptide was visualized as a zone of clearing around each well after 18-24 h of incubation at 37° C.
Radial diffusion assay—Essentially as described earlier (23, 24), bacteria were grown to mid-logarithmic phase in 10 ml of full-strength (3% w/v) trypticase soy broth (TSB) (Becton-Dickinson). The microorganisms were then washed once with 10 mM Tris, pH 7.4. […]

[3] = system: E. coli LPS shock in C57BL/6 mice; assay: LPS model in vivo (LPS-induced shock): survival, cytokines, lungs; parameters: species or system mouse; conditions: for overall (proinflammatory) cytokine release: 20 h after LPS injection, peptide 500 μg; for survival: E. coli LPS i.p., peptide 500 μg i.p. 30 minutes after, followed 7 days
Description: Histochemistry—For immunostaining, wound biopsies were fixed in 10% formalin, rehydrated and embedded in paraffin. Sections of 5 μm thickness were placed on poly-lysine coated glass slides, deparaffinized in xylene and rehydrated in graded alcohols. The slides were then treated with Dako antigen retrieval solution (Dako) for 40 min at 97° C., and incubated for 24 h at room temperature in a 1:50 dilution of polyclonal antibodies against TFPI (Sigma-Aldrich, in TBS with 1% BSA, 5% goat serum, 0.05% Tween 20). After three 20 min washes in TBS with 0.05% Tween 20, the sections were incubated with alkaline phosphatase conjugated secondary goat anti-rabbit IgG (Dako) diluted 1:1000 in the same buffer as the primary antibody and incubated for another 24 hours, followed by three 20 min washes. Sections were developed with Vulcan Fast Red chromogen (Biocare Medical, Concord, Calif.) and the slides were counterstained with Harris Hematoxylin (EM Science, Gibbstown, N.J.). For histological evaluation of lungs derived from the in vivo LPS-models in mice, tissues were embedded as above, sectioned and stained with hematoxylin and eosin by routine procedures (Histocenter, Gothenburg, Sweden).
LPS model in vivo—Male C57BL/6 mice (8-10 weeks, 22+/−5 g), were injected intraperitoneally with 18 mg E. coli 0111:B4 LPS (Sigma) per kg of body weight. Thirty minutes after LPS injection, 0.5 mg GGL27, GGL27(S), DSE25 or buffer alone was injected intraperitoneally into the mice. Survival and status was followed during seven days. For blood collection and histochemistry, mice were sacrificed 20 h after LPS challenge, and lungs were removed and fixed. These experiments were approved by the Laboratory Animal Ethics Committee of Malmo/Lund.
Cytokine assay—The cytokines IL-6, IL-10, MCP-1, INF-γ, and TNF-α were measured in plasma from mice subjected to LPS (with or without peptide treatment) using the Cytometric bead array; mouse inflammation kit (Becton Dickinson AB) according to the manufacturer's instructions.

bacteria = conditions: cited from earlier work
[4] = system: thrombin induced fibrin network formation in normal human plasma; assay: Clotting assay: thrombin clotting time (TCT); type: biochemical
Description: (§1) Clotting assays. All clotting times were measured using an Amelung coagulometer. Activated partial thromboplastin time (aPTT) was measured by incubating the peptides diluted in sterile water at the indicated concentrations, with 100 μL citrated human plasma for 1 minute followed by the addition of 100 μL aPTT reagent (aPTT Automate, Diagnostica Stago) for 60 seconds at 37° C. Clotting was initiated by the addition of 100 μL of a 25-mM CaCl2 solution. In the prothombrin time assay (PT), clotting was initiated by the addition of 100 μL Thrombomax with calcium (PT reagent; Sigma-Aldrich). For measuring the thrombin clotting time (TCT), clotting was initiated by the addition of 100 μL Accuclot thrombin time reagent (TCT reagent; Sigma-Aldrich).

P. aeruginosa = assay: Viable count analysis, P. aeruginosa; type: cell-based, Pseudomonas aeruginosa; conditions: 20% human citrate plasma
Description: (§2) Viable count analysis—E. coli strains were grown to mid-logarithmic phase in Todd-Hewitt (TH). P. aeruginosa strains were grown in TH overnight. Bacteria were washed and diluted in 10 mM Tris, pH 7.4 containing 5 mM glucose. 2×10^6 cfu/ml bacteria were incubated in 50 μl, at 37° C. for 2 h with the C-terminal TFPI-derived peptides GGL27, TKR22, or LIK17 at the indicated concentrations. Additional experiments were performed in 10 mM Tris, pH 7.4, containing 0.15 M NaCl, either alone or with 20% normal or heat inactivated citrate-plasma. Serial dilutions of the incubation mixture were plated on TH agar, followed by incubation at 37° C. overnight and cfu determination.

E. coli = assay: Viable count analysis, E. coli; type: cell-based, Escherichia coli
Description: Viable count analysis. E. coli ATCC 25922 bacteria were grown to mid-logarithmic phase in Todd-Hewitt (TH) medium. Bacteria were washed and diluted in 10 mM Tris, pH 7.4 containing 5 mM glucose. E. coli ATCC 25922 (50 μl; 2×10^6 cfu/ml) were incubated, at 37° C. for 2 h with peptides at the indicated concentrations. Other experiments with the TFPI-peptides and LL-37 were performed in 10 mM Tris, pH 7.4, containing also 0.15 M NaCl, with normal or heat inactivated 20% citrate-plasma (PP). Serial dilutions of the incubation mixture were plated on TH agar, followed by incubation at 37° C. overnight and cfu determination.
as §2

[5] = system: intrinsic pathway of coagulation in normal human plasma; assay: Clotting assay: activated partial thromboplastin time (aPTT); type: biochemical
Description: as §1

Chain of C3a (complement anaphylatoxin C3a peptides in chronic wound fibrin slough) (human) (P01024 672-748): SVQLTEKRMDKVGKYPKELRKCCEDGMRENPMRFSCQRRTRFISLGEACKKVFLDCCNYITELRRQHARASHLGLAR

C-terminal TFPI peptides (endogenous C-terminal fragments of tissue factor pathway inhibitor found in human chronic wound fibrin slough) (from UniProt P10646 268-304)
percent of TFPI-molecules associated with C3a [1]: 70%

DSEEDEEHTIITDTELPPLKLMHSF (DSE25 control peptide) [control peptide from the N-terminus of TFPI, reference compound]
LPS-mediated NO release (RAW 264.7 macrophages): did neither block NO release
antimicrobial activity (zones of clearance) [2]: no antimicrobial effects
overall (proinflammatory) cytokine release [3]: nor significantly alter overall cytokine release
survival [3]: nor significantly alter overall cytokine release, as well as survival

GGLISTSSSSSSQRVKIAYEEIFVKNM (GGL27(S) control peptide) [control peptide, central K/R residues of GGL27 replaced by S, reference compound]
LPS-mediated NO release (RAW 264.7 macrophages): did neither block NO release
antimicrobial activity (zones of clearance) [2]: no antimicrobial effects
overall (proinflammatory) cytokine release [3]: nor significantly alter overall cytokine release
survival [3]: nor significantly alter overall cytokine release, as well as survival

GKRKKKGKGLGKKRDPCLRKYK (Heparin-binding growth factor derived peptide) [GKR22]
antibacterial activity at physiological conditions (bacteria): retain their antibacterial activity at physiological conditions

HKHGHGHGKHKNKGKKNGKH (A kininogen-derived antimicrobial peptide) [HKH20]
antibacterial activity at physiological conditions (bacteria): retain their antibacterial activity at physiological conditions

TKRKRKKQRVKIAYEEIFVKNM [TKR22, C-terminal peptide of TFPI]
thrombin clotting time (TCT) [4]: not significantly affected
killing in human plasma compared with physiological buffer (P. aeruginosa): not enhanced
bactericidal activity in presence of human plasma (E. coli; 0.15 M NaCl, 10 mM Tris, pH 7.4 with 20% human citrate plasma, versus buffer): significantly enhanced
bactericidal activity in heat-inactivated plasma (E. coli; 20% heat-inactivated human citrate plasma): abolished the potentiation
activated partial thromboplastin time (aPTT) [5]: impair the intrinsic pathway of coagulation
